We go through two compounds from patent publication US20140336138A1, “COMPOSITIONS AND METHODS FOR SCREENING AND TREATMENT OF STURGE-WEBER SYNDROME, KLIPPEL-TRENAUNAY-WEBER SYNDROME, AND PORT-WINE STAINS (PWSS)” (The Johns Hopkins University, priority 2013, published 2014).

The structures appear in SMILES notation.

Data set [1] relates to cells transfected with the R183Q mutation. The data set can be described thus: Cell death / appearance of drug treated R183Q transfected cell cultures. The class given is cell-based, human. The note with it: 100 nM digoxin.
Another data set concerns RGS4. The note with it: cited from earlier work.
The next data set concerns RGS2. The following applies: cited from earlier work.
The next data set deals with phosphorylated-ERK. The data set is described as follows: Western analysis of phosphorylated-ERK in 293T cells transfected with GNAQ p.R183Q, normalized to tubulin. Type of data set: cell-based, human. The note with it: 100 nM digoxin, 42 hours, p=0.0003. The procedure:
293T cells will be transiently transfected with wildtype, GNAQ, the p.Arg183Gln, or the p.Gln209Leu mutant constructs. Fugene6 (Promega) is used for the 293T transfections (3:1 ratio Fugene6:DNA). The cells are transfected at 60-75% confluency for about an hour.
Levels of phosphorylated-ERK (rabbit monoclonal Phospho-p44/42 MAPK (Erk1/2) Cell Signaling Technology) and phosphorylated-JNK are measured by western analysis and normalized to tubulin. RGS2 and/or RGS4 levels are measured by western analysis and normalized to tubulin. Protein samples are collected from three replicates per cell type and condition. Additionally, similar experiments are performed with the p.Gln209Leu GNAQ mutants as well.

Regarding `C[C@H]1O[C@@H](O[C@H]2[C@@H](O)C[C@H](O[C@H]3[C@@H](O)C[C@H](O[C@H]4CC[C@@]5(C)[C@H](CC[C@@H]6[C@@H]5C[C@@H](O)[C@]5(C)[C@@H](C7=CC(=O)OC7)CC[C@]65O)C4)O[C@@H]3C)O[C@@H]2C)C[C@H](O)[C@@H]1O` [digoxin], in data set [1] (18 hours), the “cell death in drug treated cell cultures” value is reported as “increased cell death”. Also, in data set [1] (42 hours), the “cell death / growth in drug treated cells” value is recorded as “increased cell death/less growth”. Moreover, in the data set on RGS4, the RGS4 protein levels result was “not”. For the same compound, in the data set on RGS2, the RGS2 protein levels result was “increase”. Also, the “p-ERK increase (drug vs vehicle)” value in the data set with phosphorylated-ERK is recorded as “about 3.9 fold”.
On to `C[C@@H]1O[C@@H](O[C@H]2C[C@@H](O)[C@]3(CO)[C@H]4[C@H](O)C[C@]5(C)[C@@H](C6=CC(=O)OC6)CC[C@]5(O)[C@@H]4CC[C@]3(O)C2)[C@H](O)[C@H](O)[C@H]1O` [ouabain], for which the RGS4 protein levels result with RGS4 is “not”. In addition, the RGS2 protein levels entry with RGS2 is given as “increase”.
